Row | SMILES | melting point [°C]
1 | OCCCCc1ccc(N2CCOCC2)cc1 | 51 to 52
2 | CN(C)C(=O)c1cnn(-c2ccc(Br)cc2)c1C#N | 131 to 133
3 | CN1CNC(=N[N+](=O)[O-])N(Cc2ccc(Cl)nc2)C1 | 150 to 154
4 | CCCCCCCCCCCCCCCCOC[C@@H]1OCCC[C@H]1O (relative stereo) | 41.5 to 43
5 | Nc1ccc(C(=O)N2CC3CC(CN(Cc4ccc(Cl)cc4)C3)C2)cc1 | 213
6 | COCCN1CC(C(=O)OC)N(S(=O)(=O)c2ccc(OC)cc2)Cc2ccccc21 (centres undefined) | 86 to 90
7 | COc1cccc(CN2CCN(CC(=O)N3CC=C(c4ccccc4)n4ncc(C#N)c43)CC2)c1 | 98 to 100
8 | C=C(C)C(=O)OC1=CC(O)(C(C)=O)C(C(=O)O)C=C1 (centres undefined) | 153
9 | COC1(c2cccc(OCc3ccc(-n4cnc(-c5ccccc5)c4)cc3)c2)CCOCC1 | 98 to 100
10 | O=c1[nH]ccc2c1C(c1cccc(Cl)c1)N=C(c1ccccc1)N2 (centres undefined) | 172 to 173
11 | C[C@@H](n1cnc2cc(N3CCN(C)CC3)ccc2c1=O)[C@](O)(Cn1cncn1)c1ccc(F)cc1F | 121 to 131
12 | O=c1[nH]c(-c2ccccc2)c(-c2ccccc2S(=O)(=O)NCCCBr)o1 | 232 to 235
13 | N#Cc1ccc(-c2ccc(OCC(CN3C(=O)c4ccccc4C3=O)N(O)C=O)cc2)cc1 (centres undefined) | 199 to 202
14 | OC(CNC1CCc2ccccc2C1)COc1ccccc1Cl (centres undefined) | 98 to 101
15 | COc1ccc(NC2C=CC3=Nc4ccccc4SC3=C2)cc1 (centres undefined) | 135 to 136
16 | CC(C)(C)OC(=O)NC(Cc1ccccc1)C(O)CNCC(O)C(Cc1ccc(OCCN2CCOCC2=O)cc1)NC(=O)OC(C)(C)C (centres undefined) | 108 to 111
17 | O=C(CF)NOC(=O)C(F)(F)F | 56 to 59
18 | CCOC(=O)c1c(SC)nc(-c2ccc(F)cc2)n(-c2ccc(SC)cc2)c1=O | 166 to 169
19 | OC1CSC(Oc2cccnc2-c2cccnc2)C(O)C1O (centres undefined) | 80
20 | COc1ccc2c(=O)c(-c3ccc(OCC(O)CNC4CCCCC4)cc3)coc2c1 (centres undefined) | 125 to 126
21 | OCc1nn(-c2ccccc2)c2c1CCC2 | 94 to 95
22 | CC(C)(C)OC(=O)N1CCC2(CC1)C(=O)N(CC(=O)O)CN2C1CCCCC1 | 173 to 174
23 | N#CN=C(NCCC[C@@H](NC(=O)C(c1ccccc1)c1ccccc1)C(=O)NCc1ccc(O)cc1)Oc1ccccc1 | 110 to 112
24 | Fc1cc2nc3c(cnn3-c3ccccn3)c(Cl)c2cc1F | 167 to 168
25 | CC(c1oc2ccccc2c(=O)c1-c1cccc(F)c1)n1nc(-c2ccc3cc[nH]c3c2)c2c(N)ncnc21 (centres undefined) | 222 to 225

Row | SMILES | melting point [°C]
26 | CCOC(=O)CCCOc1ccc(-c2cc(C#N)c(=O)[nH]c2C)cc1 | 222 to 224
27 | Cc1cc(C)c2c(n1)N(CCN(C)C)C(=O)N(C)C2 | 105 to 107
28 | COCc1cc2c(s1)CCCc1cc(=O)n(-c3ccc(OC)cc3)nc1-2 | 115 to 117
29 | COc1c(OCc2ccccc2)ccc(C(=O)O)c1N | 167 to 168
30 | O=C(O)c1c[nH]c2nc(NCc3ccccc3)nn2c1=O | 240 to 245
31 | CCOc1ccc(C=O)cc1CCl | 74.5 to 75.5
32 | COC(=O)[C@H](Cc1ccc([N+](=O)[O-])cc1)NC(=O)OC(C)(C)C | 95 to 96
33 | O=C(Nc1cnccn1)Nc1cccc2c1C1C[C@@H](O)CCN1C2=O (some centres undefined) | 250
34 | Cc1cc(C)nc(NC(=O)C(N)CC(C)C)c1 (centres undefined) | 78
35 | Nc1nc(-c2ccc(Cl)cc2F)nc(C(=O)O)c1Cl | 194 to 196
36 | CC(C)(CNC(=O)C(C)(C)CCC(=O)O)SN=O | 100 to 101
37 | CC(C)(ON1C(=O)c2ccccc2C1=O)C(=O)O | 133 to 135
38 | C=CC(=O)Nc1ccc2c(c1)nnn2C(C)=O | 167 to 170
39 | CCC(=O)C1=C(O)CC(c2ccc3c(c2)OCO3)CC1=O (centres undefined) | 129
40 | COC(=O)Cc1cn(-c2ccccc2)nc1OCc1ccc(OCc2nc(-c3ccccc3)oc2C)c(OC)c1 | 107 to 108
41 | CCN(CC)C(=O)c1c(C(=O)c2cc3cnccc3n2S(=O)(=O)c2ccccc2)ccnc1OC | 150
42 | COc1cc(OC)nc(NC(=O)NS(=O)(=O)c2ncccc2C(CCl)OC(C)=O)n1 (centres undefined) | 159 to 161
43 | CCN(CC)C(=O)COc1cc(-c2ccccc2)nc2ccccc12 | 97
44 | Nc1ccc(S(=O)(=O)n2cc(CC3CCNCC3)c3cc(F)ccc32)cc1 | 162 to 164
45 | O=C1c2ccccc2C(=O)N1OCc1ccc(F)c(Oc2ccccc2)c1 | 88.2
46 | CC1(C)C(C(=O)O)C1C(OS(C)(=O)=O)C(Br)(Br)Br (centres undefined) | 168
47 | COC(=O)Cn1c(SCc2nccc(SCCN3CCOCC3)c2C)nc2ccccc21 | 128 to 129
48 | [O-][N+]1=C(c2ccccc2Cl)c2nc(Cl)ccc2-n2cnnc2C1 | 242 to 244
49 | CCc1cc(NCc2ccc(-n3cccc3-c3nnn[nH]3)cc2)n2nccc2n1 | 129 to 130

Further lines, results first:

Row | melting point [°C] | SMILES
50 | 109 to 110 | COC(=O)CC(C#Cc1ccc(C(=O)O)cc1)c1ccc(OC)c(OC2CCCC2)c1 (racemic)
51 | 123 to 124 | Cc1ccc(S(=O)(=O)N2CC=CC2)cc1
52 | 192 to 193 | CS(=O)(=O)N1CCC(Nc2nc(CCC(F)(F)F)nc(Nc3ccc(F)c(Cl)c3)n2)CC1
53 | 96 to 99 | CC(C)(O)C(=O)c1ccc(Oc2ccc(C(=O)C(C)(C)O)cc2)cc1
54 | 157 | CCOC(=O)C(CC)c1ccc(N[C@@H](CCC(N)=O)C(=O)O)cc1 (some centres undefined)
55 | 225 | CN1C(=O)C(C2OC(=O)c3ccccc32)N(C)C(=O)C1Cc1ccccc1 (centres undefined)
56 | 218 to 222 | CN(CCC#N)c1nc(Nc2cccc(NS(C)(=O)=O)c2)nc2[nH]cnc12
57 | 163 to 164 | NS(=O)(=O)c1cnccc1C1=NOCCO1
58 | 80 to 86 | N#CC(C#N)=C1N(CCCN2CCCCC2)CCN1CCN1CCCCCC1
59 | 145 to 147 | CCCCN1C(=O)c2cncnc2Nc2ccccc21
60 | 150 to 154 | CC(C)(C)c1cc(Cl)cc2c1OC(=O)C2O (centres undefined)
61 | 165 to 166 | N#CCCNC(=O)c1cccc(-c2cccc3nn(Cc4ccc(F)c(Cl)c4)cc23)c1
62 | 126 to 130 | N#CCCNC(=O)c1cccc(-c2ccc3c(c2)C(NCc2ccc(Cl)cc2Cl)CC3)c1 (centres undefined)
63 | 205 to 207 | CNC(=O)[C@]1(n2cnc3c(NCc4cccc(I)c4)nc(Cl)nc32)SC[C@H](O)[C@@H]1O
64 | 148 to 149 | CNC(=S)C1=CC(CF)(CF)Oc2ccc(C(F)(F)C(F)(F)F)cc21
65 | 123 to 125 | Cc1cc(C(=O)N(C)CCO)ncc1C(c1cc(F)ccc1F)S(=O)(=O)c1ccc(F)cc1 (centres undefined)
66 | 74 to 76 | CCCN(C1=C(O)C[C@@](CCc2cccc(O)c2)(C2CCCC2)OC1=O)c1ccccc1
67 | 152 to 159 | CC(=O)Oc1ccc(C(=O)O)cc1Cl
68 | 197 to 198 | CC1(C)CC(=C(c2ccc(O)cc2)c2ccc(-c3cccc(CO)c3)cc2)CC(C)(C)C1
69 | 90 to 91 | Cc1ccccc1COC(C)(CO)CO
70 | 170 to 172 | Cc1cc(C)c(N)cc1N
71 | 204 to 205 | COc1ccc(-c2c(Cl)c(CNC(C)(C)C)nc3sc4c(c23)CCN(C(=O)c2ccccc2)C4)cc1OC
72 | 168 to 170 | COC(=O)[C@H](Cc1ccc(N2C(=O)c3ccc(Br)cc3C2=O)cc1)NC(=O)OC(C)(C)C
73 | 254 to 255 | O=C(CCl)Nc1ccc2c(c1NC(=O)CCl)C(=O)c1ccccc1C2=O
74 | 242 to 243 | Cc1nnc(-c2ccc3occ(-c4ccc5c(c4)C(C)(C)CS5(=O)=O)c3c2)o1

Row | melting point [°C] | SMILES
75 | 154 to 157 | O=C1COCCN1c1ccc(N2C[C@@H](CI)OC2=O)cc1
76 | 135 to 137 | Cc1c(NC(=O)CC(C)(C)C)c(C)c2c(c1-c1ccc(F)nc1)OCC2c1ccc(C(C)C)cc1 (centres undefined)
77 | 221 to 222 | Cc1cc2[nH]c(=O)n(S(=O)(=O)c3ccc(Cl)cc3)c(=O)c2cc1C
78 | 75 to 77 | CCN(CC)c1ccc(C=O)c([N+](=O)[O-])c1
79 | 151 to 154 | COC1=C(OC)C(=O)C2=C(CCC(CCOc3ccc(NC(C)=O)cc3)CC2)C1=O
80 | 199 to 200 | c1cnc2ccc(Nc3nccc(-c4ccc(N5CCNCC5)nc4)n3)cc2c1
81 | 157 to 160 | Cn1c(C(F)(F)F)cc(=O)n(-c2cc(OC(=O)CC#N)c(Cl)cc2F)c1=O
82 | 165 to 168 | O=C(O)c1ccccc1N1C(=O)C=CC1=O
83 | 222 to 223 | CCC(=O)Nc1ccc2nc(C(=O)NCc3cccc(OC)c3)[nH]c(=O)c2c1
84 | 197 to 198 | CCOC(=O)c1cc2cc(Oc3ccc(S(C)(=O)=O)cc3)cc(O)c2[nH]1
85 | 201 to 203 | COc1cc(C(=O)c2c[nH]c(-c3ccc(C)cc3)n2)cc(OC)c1OC
86 | 188 | CCN(c1cccc2cc(-c3ncc(COc4ccc(C(=O)O)cc4)s3)[nH]c12)S(=O)(=O)c1cccs1
87 | 125 to 128 | Cc1ncn(-c2ccc(C=O)cc2)n1
88 | 146 to 147 | CNC(=O)c1cccc(F)c1Nc1nc(Nc2ccc3c(c2)CCCC(=O)N3CCOC)ncc1Cl
89 | 115 to 117 | C=CCOc1cccc2c1C(=O)OC2=O
90 | 125 to 126 | CNC(=O)CC1CN=C(c2cc3cc(Oc4ccc(S(C)(=O)=O)cc4)cc(OC)c3[nH]2)S1 (centres undefined)
91 | 195 to 197 | OCc1ccc(-c2ccc(CO)cc2)cc1
92 | 224 to 226 | CCc1cc2c(O)c(C#N)c(=O)oc2cc1C
93 | 158 to 160 | CCNC(=O)N(O)C(c1ccccc1)c1cc(C(C)(C)C)c(O)c(C(C)(C)C)c1 (centres undefined)
94 | 82 to 83 | Cc1cc(O)c2c(c1)CCC2
95 | 63 to 66 | CC(C)(C)OC(=O)Nc1ccc(-c2ccccc2F)cc1NC(=O)CC(=O)c1sccc1C#N
96 | 77 to 78.5 | CCCCCCCCCCC1(CCCCCCCCCC)c2cc(C=O)ccc2-c2ccc(N(c3ccccc3)c3ccccc3)cc21
97 | 168 to 169 | O=c1oc(-c2ccc(OCc3ccc(Cl)c(Cl)c3)cc2)cc(O)c1SCCc1ccccc1
98 | 127 to 129 | COC(=O)c1ccc(CC(C)(C)NCC(O)c2cc3ccccc3o2)cc1 (centres undefined)
99 | 61 to 63 | COc1cccc(C(CC(=O)O)SC)c1 (centres undefined)
